Here are results for three compounds from article PMC5967867, “An NMDAR positive and negative allosteric modulator series share a binding site and are interconverted by methyl groups” (eLife, 2018).

Usually IC50 stands for the point on the concentration scale where inhibition reaches its midpoint. In general, EC50 refers to the concentration at which the effect is half-maximal. A word on the kon: it is the rate constant with which the complex forms. The term koff denotes the rate constant with which the complex falls apart. Usually Kd stands for the concentration at which binding is half-saturated.

Where “and” joins values, the source holds several entries; their conditions need not be identical. Equal values may be shown once. Read-outs that look alike come from different tables or passages of the source. Marks after values point to notes of the source that are not given here.

One assay concerns the target GluN1/GluN2B NMDARs (Rattus norvegicus, UniProt P35439+Q00960). Briefly: Two-electrode voltage-clamp recordings, Xenopus laevis oocytes expressing GluN1/GluN2B. The note with it: for Emax: read-out: Maximal Degree of Modulation (% of control). The class given is cell-based. The procedure:
(§1) cDNAs for rat wild type NMDAR subunits GluN1-1a (GenBank U11418, U08261; hereafter GluN1 or GluN1a), GluN1-1b (U08263, hereafter GluN1b), GluN2A (D13211), GluN2B (U11419), GluN2C (M91563), and GluN2D (L31611, modified as described in [Monyer et al., 1994]) were provided by Drs. S. Heinemann (Salk Institute), S. Nakanishi (Kyoto University), and P. Seeburg (University of Heidelberg). Site-directed mutagenesis was conducted using the QuikChange kit (Agilent Technologies, Santa Clara, CA) following the recommended protocol. DNA sequencing was used to verify all mutations. The amino acid numbering system started with the initiating methionine as residue number one. For expression in Xenopus laevis oocytes, cDNA constructs were linearized by restriction enzymes, and subsequently used to synthesize in vitro cRNAs following the manufacturer’s protocol (mMessage mMachine, Ambion, ThermoFisher Scientific, Waltham, MA).
Xenopus laevis stage VI oocytes (Ecocyte Biosciences, Austin, TX) were injected as previously described ([Hansen et al., 2013]) 2–7 days prior to recording with cRNA encoding the NMDAR subunits and stored at 15°C in media containing (in mM) 88 NaCl, 2.4 NaHCO3, 1 KCl, 0.33 Ca(NO3)2, 0.41 CaCl2, 0.82 MgSO4, 5 Tris-HCl; pH was adjusted to 7.4 with NaOH and the solution supplemented with 1 U/mL penicillin, 0.1 mg/mL gentamicin sulfate, and 1 μg/mL streptomycin. Two-electrode voltage-clamp recordings were performed at room temperature (21–23°C) using different internal solutions for voltage and current electrodes (0.3 M and 3.0 M KCl, respectively). All extracellular solutions were made from a solution containing (in mM) 90 NaCl, 1 KCl, 10 HEPES, 0.5 BaCl2, 0.01 EDTA (pH 7.4 with NaOH). Experiments were performed using an eight port Modular Valve Positioner (Hamilton Company, Reno, NV) and controlled by custom software (Easy Oocyte, Emory University, Atlanta, GA)to exchange solutions. Oocyte currents were recorded at a holding potential of −40 mV using a two-electrode voltage-clamp amplifier (OC-725B or OC-725C, Warner Instruments, Hamden, CT). […] In MTSEA experiments, fresh MTSEA solutions (0.2 mM) were prepared and utilized in less than 30 min to limit compound degradation.
Measurements are given as mean ± SEM unless otherwise indicated. The number of replicate experiments used was chosen to ensure a power level of at least 0.80 when α = 0.05 and when detecting appropriate effect sizes. EC50 and IC50 values and confidence intervals reported were calculated by averaging the log(EC50) or log(IC50) value, determining confidence intervals for mean log(EC50) or log(IC50), and converting back to units of molarity. Statistical significance evaluations (α set to 0.05) were performed using a one-way ANOVA with Dunnett’s multiple comparison test, a paired t–test, or other appropriate tests as described.
Background: In two-electrode clamp one electrode senses voltage and the other passes current.

In a further assay the target is GluN1/GluN2D NMDARs (Rattus norvegicus, UniProt P35439+Q62645). Briefly: Whole cell patch-clamp recordings, HEK293 cells expressing GluN1/GluN2D. The class given is cell-based. As to conditions: for kon / koff: HEK293; for kon: read-out: association rate kon; for koff: read-out: dissociation rate koff; for Kd: calculated from association and dissociation rates, HEK cells, read-out: kinetically-determined affinity constant Kd. On the procedure:
We studied NMDARs expressed in HEK293 cells to investigate the time course of modulator action. […] These modulators were tested on GluN1/GluN2A and GluN1/GluN2D to see whether there were differences in modulation given the distinct properties of these NMDAR subtypes. […] The time-course of modulator binding of EU1794-2, EU1794-4 and EU1794-27 was also determined for GluN1/GluN2A (Figure 4C,D).
as §1
HEK293 cells (CRL-1573, ATCC, Manassas, VA) were maintained in a tissue culture room solely reserved for their culturing and transfected using a CaPO4 protocol to express the diheteromeric NMDARs as previously described ([Hansen et al., 2013]). Cell lines were obtained directly from the supplier, were expanded, frozen and kept in liquid nitrogen in a dewar. Mycoplasma testing was not performed. cDNA ratios for transfection were 1:1:1 (GluN2D) or 1:1:5 (GluN2A) for GluN1:GluN2:GFP.

Where [1] appears, read: read-out: IC50 (µM) [conf. int.].
Setting [2] is: saturating glutamate/glycine 100/30 µM, mean [95% CI], - = not fit, response at 30 µM differed by no more than 15% from control, read-out: EC50 (µM) [conf. int.].
[3] abbreviates: saturating glutamate/glycine 100/30 µM, mean ± SEM.
The mark [4] stands for this setting: sub-saturating glutamate/glycine 1/0.3 µM, read-out: EC50 (µM) [conf. int.].
Setting [5] is: sub-saturating glutamate/glycine 1/0.3 µM.
Setting [6] is: concentration dependence of linear component of time course.

Chain of GluN1/GluN2D NMDARs (Q62645 28-1323, other chains not shown): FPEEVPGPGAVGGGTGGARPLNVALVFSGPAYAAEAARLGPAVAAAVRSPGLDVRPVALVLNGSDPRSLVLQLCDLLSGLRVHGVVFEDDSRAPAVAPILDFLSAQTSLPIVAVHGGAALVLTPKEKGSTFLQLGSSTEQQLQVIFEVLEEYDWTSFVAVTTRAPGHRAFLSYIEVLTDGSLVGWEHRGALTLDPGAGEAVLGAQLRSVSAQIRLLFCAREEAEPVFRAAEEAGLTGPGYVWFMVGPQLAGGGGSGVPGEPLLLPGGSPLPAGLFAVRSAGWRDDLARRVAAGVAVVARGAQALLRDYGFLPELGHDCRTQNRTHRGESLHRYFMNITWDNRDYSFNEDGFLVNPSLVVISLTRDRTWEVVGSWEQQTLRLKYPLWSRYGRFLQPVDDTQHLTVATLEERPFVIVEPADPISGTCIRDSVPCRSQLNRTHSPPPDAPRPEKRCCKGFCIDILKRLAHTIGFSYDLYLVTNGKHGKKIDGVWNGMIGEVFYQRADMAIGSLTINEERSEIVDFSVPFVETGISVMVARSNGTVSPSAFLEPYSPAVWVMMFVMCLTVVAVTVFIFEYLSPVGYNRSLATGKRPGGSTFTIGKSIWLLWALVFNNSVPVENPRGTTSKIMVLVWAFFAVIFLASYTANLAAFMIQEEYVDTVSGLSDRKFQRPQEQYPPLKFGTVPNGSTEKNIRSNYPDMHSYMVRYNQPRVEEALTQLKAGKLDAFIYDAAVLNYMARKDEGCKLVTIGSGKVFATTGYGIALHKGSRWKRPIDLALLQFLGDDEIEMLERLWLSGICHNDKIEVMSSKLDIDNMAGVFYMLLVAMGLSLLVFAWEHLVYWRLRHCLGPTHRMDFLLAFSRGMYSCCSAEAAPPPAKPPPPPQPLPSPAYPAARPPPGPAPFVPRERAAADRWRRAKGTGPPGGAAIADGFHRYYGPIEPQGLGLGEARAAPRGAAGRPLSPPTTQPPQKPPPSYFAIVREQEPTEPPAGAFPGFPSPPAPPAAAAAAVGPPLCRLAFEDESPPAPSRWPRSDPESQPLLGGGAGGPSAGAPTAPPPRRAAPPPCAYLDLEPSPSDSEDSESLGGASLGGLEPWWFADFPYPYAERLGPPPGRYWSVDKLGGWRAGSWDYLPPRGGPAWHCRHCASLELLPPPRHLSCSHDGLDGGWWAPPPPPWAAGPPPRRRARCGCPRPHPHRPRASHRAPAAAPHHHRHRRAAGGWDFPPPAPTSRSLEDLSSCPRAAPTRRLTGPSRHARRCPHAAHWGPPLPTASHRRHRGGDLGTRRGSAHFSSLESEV
Chain of GluN1/GluN2B NMDARs (Q00960 27-1482, other chains not shown): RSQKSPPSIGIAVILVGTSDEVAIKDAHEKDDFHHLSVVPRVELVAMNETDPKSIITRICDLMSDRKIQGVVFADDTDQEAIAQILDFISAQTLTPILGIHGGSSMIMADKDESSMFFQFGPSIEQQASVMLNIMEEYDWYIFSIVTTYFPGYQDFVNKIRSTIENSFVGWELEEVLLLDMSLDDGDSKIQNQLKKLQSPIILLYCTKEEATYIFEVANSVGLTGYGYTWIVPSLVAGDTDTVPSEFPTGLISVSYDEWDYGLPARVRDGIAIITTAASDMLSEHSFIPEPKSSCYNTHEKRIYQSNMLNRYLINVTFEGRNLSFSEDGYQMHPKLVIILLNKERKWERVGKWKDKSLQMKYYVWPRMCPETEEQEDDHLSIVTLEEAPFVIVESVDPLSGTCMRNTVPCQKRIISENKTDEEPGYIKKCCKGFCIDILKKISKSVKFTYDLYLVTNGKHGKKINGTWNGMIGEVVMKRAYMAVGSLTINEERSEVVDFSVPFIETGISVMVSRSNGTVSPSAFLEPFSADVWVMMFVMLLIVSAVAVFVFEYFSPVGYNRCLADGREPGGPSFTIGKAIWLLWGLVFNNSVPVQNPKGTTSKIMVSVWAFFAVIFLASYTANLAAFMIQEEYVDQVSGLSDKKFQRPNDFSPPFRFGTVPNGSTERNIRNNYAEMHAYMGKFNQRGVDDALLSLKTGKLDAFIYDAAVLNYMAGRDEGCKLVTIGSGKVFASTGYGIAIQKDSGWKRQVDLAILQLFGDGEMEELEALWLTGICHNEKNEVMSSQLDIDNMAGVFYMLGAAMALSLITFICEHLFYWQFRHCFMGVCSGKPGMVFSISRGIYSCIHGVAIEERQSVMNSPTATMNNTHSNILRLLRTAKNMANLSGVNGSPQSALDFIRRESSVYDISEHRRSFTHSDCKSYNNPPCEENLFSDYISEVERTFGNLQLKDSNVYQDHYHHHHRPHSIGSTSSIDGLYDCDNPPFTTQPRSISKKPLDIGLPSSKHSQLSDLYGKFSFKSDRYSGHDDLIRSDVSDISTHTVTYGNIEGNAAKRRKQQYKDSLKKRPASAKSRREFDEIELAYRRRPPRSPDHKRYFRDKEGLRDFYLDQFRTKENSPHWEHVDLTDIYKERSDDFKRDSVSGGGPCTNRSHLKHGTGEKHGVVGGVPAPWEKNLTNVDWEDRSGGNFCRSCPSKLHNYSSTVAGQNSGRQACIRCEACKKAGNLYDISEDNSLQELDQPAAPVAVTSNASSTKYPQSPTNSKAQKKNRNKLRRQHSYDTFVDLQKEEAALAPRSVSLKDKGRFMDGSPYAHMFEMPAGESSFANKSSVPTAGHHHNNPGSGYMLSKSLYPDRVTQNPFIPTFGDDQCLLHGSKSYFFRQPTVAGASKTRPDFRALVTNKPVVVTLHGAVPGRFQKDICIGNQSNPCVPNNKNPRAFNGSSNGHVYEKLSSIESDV

Take `CCOC(=O)c1c(NC(=O)CC2SC(=N)NC2=O)sc2c1CCC(C)C2` (stereo not drawn) [EU1794-2, ethyl 2-(2-(2-imino-4-oxothiazolidin-5-yl)acetamido)-6-methyl-4,5,6,7-tetrahydrobenzo[b]thiophene-3-carboxylate]: the IC50 at GluN1/GluN2B NMDARs (+EU1794-27 10 µM, glutamate/glycine 100/30 µM, read-out: EU1794-2 IC50 (µM) [conf. int.]) was determined as 3.5 µM; on GluN1/GluN2B NMDARs (+EU1794-27 20 µM, glutamate/glycine 100/30 µM, read-out: EU1794-2 IC50 (µM) [conf. int.]) it was 12 µM; at GluN1/GluN2B NMDARs (setting [1]) it was 1.2 µM. For the same compound, the EC50 on GluN1/GluN2B NMDARs (setting [2]) amounted to 1.2 µM; on GluN1/GluN2B NMDARs (sub-saturating glutamate/glycine 0.6/0.2 µM, read-out: EC50 (µM) [conf. int.]), 1.4 µM. Besides, the results for the Emax at GluN1/GluN2B NMDARs (setting [3]) and at GluN1/GluN2B NMDARs (sub-saturating glutamate/glycine 0.6/0.2 µM) were 10% and 28%, respectively. Also, the kon on GluN1/GluN2D NMDARs stood at 430000 M⁻¹ s⁻¹. Moreover, on GluN1/GluN2D NMDARs, the koff came out at 0.495 s⁻¹. Besides, the Kd on GluN1/GluN2D NMDARs was 1.1 µM and 1.14 µM.
Consider `CCOC(=O)c1c(NC(=O)CC2SC(=N)NC2=O)sc2c1CCCC2` (stereo not drawn) [EU1794-4, ethyl 2-(2-(2-imino-4-oxothiazolidin-5-yl)acetamido)-4,5,6,7-tetrahydrobenzo[b]thiophene-3-carboxylate], for which, on GluN1/GluN2B NMDARs (control vs 10 µM EU1794-4), the “Fold Difference (glutamate EC50)” value was 2.0^† and the “Fold Difference (glycine EC50)” value was 3.3^†. Further, the IC50 on GluN1/GluN2B NMDARs (setting [1]) is 2.6 µM. For the same compound, the EC50 on GluN1/GluN2B NMDARs (setting [2]) turned out to be 2.6 µM. In addition, the Emax on GluN1/GluN2B NMDARs (setting [3]) came out at 67%. The EC50 at GluN1/GluN2B NMDARs (setting [4]) amounted to 4.3 µM. For the same compound, the Emax on GluN1/GluN2B NMDARs (setting [5]) is 210%. Besides, on GluN1/GluN2D NMDARs, the association rate constant (kon) turned out to be 1.12e+06 M⁻¹ s⁻¹; the dissociation rate constant (koff) was 4.66 s⁻¹; the Kd was 4.2 µM and 4.16 µM.
Take `CC(C)(C)OC(=O)c1c(NC(=O)CC2SC(=N)NC2=O)sc2c1CCCC2` (stereo not drawn) [EU1794-27, tert-butyl 2-(2-(2-imino-4-oxothiazolidin-5-yl)acetamido)-4,5,6,7-tetrahydrobenzo[b]thiophene-3-carboxylate]: the concentration giving a half-maximal response (EC50) at GluN1/GluN2B NMDARs (+EU1794-2 1 µM, glutamate/glycine 100/30 µM, read-out: EU1794-27 EC50 (µM) [conf. int.]) stood at 6 µM; at GluN1/GluN2B NMDARs (+EU1794-2 3 µM, glutamate/glycine 100/30 µM, read-out: EU1794-27 EC50 (µM) [conf. int.]) it was 8.4 µM; at GluN1/GluN2B NMDARs (setting [2]), 1.4 µM; on GluN1/GluN2B NMDARs (setting [4]), 6.3 µM. Further, on GluN1/GluN2B NMDARs (control vs 10 µM EU1794-27), the “Fold Difference (glutamate EC50)” value is reported as 2.0^†. Also, on GluN1/GluN2B NMDARs (control vs 10 µM EU1794-27), the “Fold Difference (glycine EC50)” value is 2.9^†. The Emax was found to be 130% at GluN1/GluN2B NMDARs (setting [3]) and 400% on GluN1/GluN2B NMDARs (setting [5]). In addition, on GluN1/GluN2D NMDARs, the kon was 187000 M⁻¹ s⁻¹. The dissociation rate constant (koff) at GluN1/GluN2D NMDARs stood at 0.802 s⁻¹. Besides, at GluN1/GluN2D NMDARs, the Kd is 4.3 µM. The “association linear component slope mon” value at GluN1/GluN2D NMDARs (setting [6]) was −0.98 pA/(ms*µM). Besides, the “dissociation linear component slope moff” value at GluN1/GluN2D NMDARs (setting [6]) is 0.62 pA/(ms*µM).
